Data on 9 compounds can be found in US20180000085A1, “USE OF PICOLINAMIDE COMPOUNDS WITH FUNGICIDAL ACTIVITY” (DOW AGROSCIENCES LLC, priority 2014, published 2018).

One assay relates to Zymoseptoria tritici. The assay is described as follows: Leaf blotch of wheat (SEPTTR) disease control on wheat seedlings. Format: in vivo. Set-up: key to SEPTTR 1DP, HV activity at 100 ppm (% control rating) / SEPTTR 3DC, HV activity at 100 ppm (% control rating) / SEPTTR disease control, 1DP / SEPTTR disease control, 3DC / SEPTTR 1DP disease control rating, HV activity / SEPTTR 3DC disease control rating, HV activity / SEPTTR 3DC, LV activity at 125.1 g/H (% Control rating) / SEPTTR 1DP, LV activity at 125.1 g/H (% Control rating) / SEPTTR 1DP disease control rating, LV activity at 125.1 g/H / SEPTTR 3DC disease control rating, LV activity at 125.1 g/H / SEPTTR 3DC disease control rating, HV activity at 100 ppm / SEPTTR 1DP disease control rating, HV activity at 100 ppm / HV activity at 100 ppm SEPTTR 3DC (disease control rating) / HV activity at 100 ppm SEPTTR 1DP (disease control rating) / LV activity at 125.1 g/H SEPTTR 1DP (disease control rating) / LV activity at 125.1 g/H SEPTTR 3DC (disease control rating): A: > 80; B: ≤ 80; C: Not Tested; D: No Activity Observed in the Reported Assay. The settings on record: for LV activity at 125.1 g/H SEPTTR 1DP (disease control rating) / LV activity at 125.1 g/H SEPTTR 3DC (disease control rating) / SEPTTR 1DP disease control rating, LV activity at 125.1 g/H / SEPTTR 3DC disease control rating, LV activity at 125.1 g/H: low volume application; for LV activity at 125.1 g/H SEPTTR 1DP (disease control rating) / LV activity at 125.1 g/H SEPTTR 3DC (disease control rating) / SEPTTR 1DP disease control rating, HV activity / SEPTTR 3DC disease control rating, HV activity: wheat leaf blotch; for SEPTTR 1DP disease control rating, HV activity / SEPTTR 3DC disease control rating, HV activity: HV application at 100 ppm.

For another assay, the system named is Puccinia triticina. The assay is described as follows: Wheat brown rust (PUCCRT) disease control on wheat seedlings. The settings on record: for LV activity at 125.1 g/H PUCCRT 1DP (disease control rating) / LV activity at 125.1 g/H PUCCRT 3DC (disease control rating) / PUCCRT 1DP disease control rating, LV activity at 125.1 g/H / PUCCRT 3DC disease control rating, LV activity at 125.1 g/H: low volume application; for LV activity at 125.1 g/H PUCCRT 1DP (disease control rating) / LV activity at 125.1 g/H PUCCRT 3DC (disease control rating) / PUCCRT 1DP disease control rating, HV activity / PUCCRT 3DC disease control rating, HV activity: wheat brown rust; for PUCCRT 1DP disease control rating, HV activity / PUCCRT 3DC disease control rating, HV activity: HV application at 100 ppm. On the set-up: key to PUCCRT 3DC, HV activity at 100 ppm (% control rating) / PUCCRT disease control, 3DC / PUCCRT 1DP disease control rating, HV activity / PUCCRT 3DC disease control rating, HV activity / PUCCRT 3DC, LV activity at 125.1 g/H (% Control rating) / PUCCRT 1DP, LV activity at 125.1 g/H (% Control rating) / PUCCRT 3DC disease control rating, LV activity at 125.1 g/H / PUCCRT 1DP disease control rating, LV activity at 125.1 g/H / PUCCRT 3DC disease control rating, HV activity at 100 ppm / PUCCRT 1DP disease control rating, HV activity at 100 ppm / HV activity at 100 ppm PUCCRT 3DC (disease control rating) / LV activity at 125.1 g/H PUCCRT 1DP (disease control rating) / LV activity at 125.1 g/H PUCCRT 3DC (disease control rating): A: > 80; B: ≤ 80; C: Not Tested; D: No Activity Observed in the Reported Assay. It counts as in vivo.

Setting [1] is: high volume application, 100 ppm, 1 day protectant.
[2] abbreviates: high volume application, 100 ppm, 3 day curative.
[3] abbreviates: HV activity at 100 ppm, 1 Day Protectant, wheat.
Setting [4] is: HV activity at 100 ppm, 3 Day Curative, wheat.
[5] abbreviates: high volume application, 100 ppm, 1DP.
[6] abbreviates: high volume application, 100 ppm, 3DC.

As for `COc1ccnc(C(=O)N[C@@H](C)C(=O)O[C@@H](C)[C@H](Oc2ccc(C)cc2)C2CC2)c1OC(C)=O` [Cmpd 1058], the “LV activity at 125.1 g/H SEPTTR 1DP (disease control rating)” value in the assay with Zymoseptoria tritici (1 Day Protectant) was “B (≤ 80)”. Further, in the assay on Zymoseptoria tritici (3 Day Curative), the “LV activity at 125.1 g/H SEPTTR 3DC (disease control rating)” value is reported as “B (≤ 80)”. The “LV activity at 125.1 g/H PUCCRT 1DP (disease control rating)” value in the assay with Puccinia triticina (1 Day Protectant) is reported as “A (> 80)”. In the assay on Puccinia triticina (3 Day Curative), the “LV activity at 125.1 g/H PUCCRT 3DC (disease control rating)” value is “A (> 80)”.
With `COc1ccnc(C(=O)N[C@@H](C)C(=O)O[C@@H](C)[C@H](Oc2cccc(Cl)c2)C2CC2)c1O` [Cmpd 1009], the “SEPTTR 1DP disease control rating, HV activity at 100 ppm” value in the assay on Zymoseptoria tritici (setting [1]) was “A (> 80)”. For the same compound, the “SEPTTR 3DC disease control rating, HV activity at 100 ppm” value in the assay on Zymoseptoria tritici (setting [2]) is “A (> 80)”. In addition, the “PUCCRT 1DP disease control rating, HV activity at 100 ppm” value in the assay with Puccinia triticina (setting [1]) is reported as “A (> 80)”. For the same compound, the “PUCCRT 3DC disease control rating, HV activity at 100 ppm” value in the assay with Puccinia triticina (setting [2]) was “A (> 80)”.
For the compound `CCOc1ccnc(C(=O)NC(C)C(=O)OC(C)C(CC(C)C)Oc2ccc(C)cc2Cl)c1OC(C)=O` (centres unmarked) [Cmpd 1098], the “LV activity at 125.1 g/H SEPTTR 1DP (disease control rating)” value with Zymoseptoria tritici (1 Day Protectant) was “D”. For the same compound, the “LV activity at 125.1 g/H SEPTTR 3DC (disease control rating)” value in the assay with Zymoseptoria tritici (3 Day Curative) was “D”. Moreover, in the assay with Puccinia triticina (1 Day Protectant), the “LV activity at 125.1 g/H PUCCRT 1DP (disease control rating)” value is on record as “D”. In addition, the “LV activity at 125.1 g/H PUCCRT 3DC (disease control rating)” value with Puccinia triticina (3 Day Curative) is reported as “B (≤ 80)”.
For the compound `CCC(Cc1ccccc1)C(OCC(C)C)C(C)OC(=O)CNC(=O)c1nccc(OC)c1OCOC(C)=O` (centres unmarked) [Cmpd 445], the “SEPTTR 1DP disease control rating, HV activity” value in the assay with Zymoseptoria tritici (1 Day Protectant) is “B (≤ 80)”. In addition, the “SEPTTR 3DC disease control rating, HV activity” value in the assay on Zymoseptoria tritici (3 Day Curative) is reported as “D”. Also, the “PUCCRT 1DP disease control rating, HV activity” value in the assay on Puccinia triticina (1 Day Protectant) was “A (> 80)”. For the same compound, the “PUCCRT 3DC disease control rating, HV activity” value in the assay on Puccinia triticina (3 Day Curative) is on record as “A (> 80)”.
Consider `COc1ccnc(C(=O)N[C@@H](C)C(=O)O[C@@H](C)[C@@H](Oc2cccc(Cl)c2)C(C)C)c1OCOC(C)=O` [Cmpd 852], for which the “SEPTTR 1DP disease control rating, LV activity at 125.1 g/H” value in the assay with Zymoseptoria tritici (1 day protectant) is “B (≤ 80)”. Also, the “SEPTTR 3DC disease control rating, LV activity at 125.1 g/H” value in the assay with Zymoseptoria tritici (3 day curative) is given as “A (> 80)”. The “PUCCRT 1DP disease control rating, LV activity at 125.1 g/H” value in the assay with Puccinia triticina (1 day protectant) is “A (> 80)”. Moreover, the “PUCCRT 3DC disease control rating, LV activity at 125.1 g/H” value in the assay with Puccinia triticina (3 day curative) was “A (> 80)”.
As for `COc1ccnc(C(=O)NC(C)C(=O)OC(C)C(Oc2ccccc2)c2nccs2)c1OCOC(C)=O` (mixture of isomers) [Cmpd 861], in the assay with Zymoseptoria tritici (1 day protectant), the “SEPTTR 1DP disease control rating, LV activity at 125.1 g/H” value was “D”. Besides, in the assay with Zymoseptoria tritici (3 day curative), the “SEPTTR 3DC disease control rating, LV activity at 125.1 g/H” value is on record as “B (≤ 80)”. Further, the “PUCCRT 1DP disease control rating, LV activity at 125.1 g/H” value in the assay on Puccinia triticina (1 day protectant) is reported as “A (> 80)”. Further, the “PUCCRT 3DC disease control rating, LV activity at 125.1 g/H” value in the assay with Puccinia triticina (3 day curative) is “A (> 80)”.
Consider `CCCOC(CC)C(Oc1ccccc1)C(C)OC(=O)C(C)NC(=O)c1nccc(OC)c1O` (centres unmarked) [Cmpd 295], for which the “SEPTTR disease control, 1DP” value in the assay with Zymoseptoria tritici (setting [3]) is listed as “D”. Also, the “SEPTTR disease control, 3DC” value with Zymoseptoria tritici (setting [4]) was “B (≤ 80)”. The “SEPTTR 1DP disease control rating, HV activity” value in the assay with Zymoseptoria tritici (1 Day Protectant) is listed as “D”. Also, in the assay on Zymoseptoria tritici (3 Day Curative), the “SEPTTR 3DC disease control rating, HV activity” value is on record as “B (≤ 80)”. For the same compound, the “SEPTTR 1DP, HV activity at 100 ppm (% control rating)” value with Zymoseptoria tritici (setting [5]) was “D”. Besides, the “SEPTTR 3DC, HV activity at 100 ppm (% control rating)” value in the assay with Zymoseptoria tritici (setting [6]) was “B (≤ 80)”. Besides, the “PUCCRT disease control, 1DP” value in the assay with Puccinia triticina (setting [3]) is recorded as “B (≤ 80)”. Also, the “PUCCRT disease control, 3DC” value in the assay with Puccinia triticina (setting [4]) is listed as “B (≤ 80)”. The “PUCCRT 1DP disease control rating, HV activity” value with Puccinia triticina (1 Day Protectant) is “B (≤ 80)”. Besides, the “PUCCRT 3DC disease control rating, HV activity” value in the assay on Puccinia triticina (3 Day Curative) is “B (≤ 80)”. The “PUCCRT 1DP, HV activity at 100 ppm (% control rating)” value with Puccinia triticina (setting [5]) is on record as “B (≤ 80)”. Besides, the “PUCCRT 3DC, HV activity at 100 ppm (% control rating)” value in the assay with Puccinia triticina (setting [6]) was “B (≤ 80)”.
In the case of `COc1ccnc(C(=O)NC(C)C(=O)OC(C)C(Oc2cc(F)cc(Cl)c2)C(C)C)c1O` (centres unmarked) [Cmpd 393], the “SEPTTR 1DP disease control rating, HV activity” value in the assay with Zymoseptoria tritici (1 Day Protectant) is recorded as “B (≤ 80)”. For the same compound, in the assay on Zymoseptoria tritici (3 Day Curative), the “SEPTTR 3DC disease control rating, HV activity” value is “A (> 80)”. For the same compound, in the assay with Puccinia triticina (1 Day Protectant), the “PUCCRT 1DP disease control rating, HV activity” value was “A (> 80)”. Besides, the “PUCCRT 3DC disease control rating, HV activity” value with Puccinia triticina (3 Day Curative) is recorded as “B (≤ 80)”.
With `CCC(CC)C(Oc1ccc(Cl)cc1)C(C)OC(=O)C(CC(C)C)NC(=O)c1nccc(OC)c1OC(C)=O` (centres unmarked) [Cmpd 686], the “SEPTTR 1DP disease control rating, LV activity at 125.1 g/H” value in the assay with Zymoseptoria tritici (1 day protectant) is “D”. The “SEPTTR 3DC disease control rating, LV activity at 125.1 g/H” value in the assay with Zymoseptoria tritici (3 day curative) is recorded as “B (≤ 80)”. Besides, the “PUCCRT 1DP disease control rating, LV activity at 125.1 g/H” value with Puccinia triticina (1 day protectant) is reported as “D”. For the same compound, the “PUCCRT 3DC disease control rating, LV activity at 125.1 g/H” value in the assay on Puccinia triticina (3 day curative) is listed as “D”.
